Experiments:
horseweed = test: Test A postemergence; assay type: in vivo, Erigeron canadensis
Summary of the method: (§1)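 Weeds and crops in loam–sand blend were sprayed preemergence onto soil or postemergence at 2–10 cm (one- to two-leaf stage). Test chemicals were in a non-phytotoxic solvent with surfactant. After 10 days in the greenhouse, injury was rated visually against untreated controls on a 0 (no effect) to 100 (complete control) scale.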

barnyardgrass = test: Test B flooded paddy test; assay type: in vivo, Echinochloa crus-galli; settings: 250 g ai/ha, Flood, 13 days, 0 to 100 scale (0 no effect, 100 complete control)
Summary of the method: (§2)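 2-leaf stage; pots flooded 3 cm over soil; compound dosed into paddy water; depth kept constant. Greenhouse, 13 d. Visual rating vs controls, 0 (no effect)–100 (complete control). Dash = no result.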

oat, wild [1] = test: Test A postemergence; assay type: in vivo, Avena fatua
Summary of the method: as §1

sedge, umbrella = test: Test B flooded paddy test; assay type: in vivo, Cyperus difformis; settings: 250 g ai/ha, Flood, 13 days, 0 to 100 scale (0 no effect, 100 complete control)
Summary of the method: as §2

ducksalad = test: Test B flooded paddy test; assay type: in vivo, Heteranthera limosa; settings: 250 g ai/ha, Flood, 13 days, 0 to 100 scale (0 no effect, 100 complete control)
Summary of the method: as §2

soybean [2] = test: Test A postemergence; assay type: in vivo, Glycine max
Summary of the method: as §1

goosegrass [3] = test: Test A preemergence; assay type: in vivo, Eleusine indica
Summary of the method: as §1

corn [4] = test: Test A postemergence; assay type: in vivo, Zea mays
Summary of the method: as §1

corn [5] = test: Test A preemergence; assay type: in vivo, Zea mays
Summary of the method: as §1

oat, wild [6] = test: Test A preemergence; assay type: in vivo, Avena fatua
Summary of the method: as §1

wheat [7] = test: Test A postemergence; assay type: in vivo, Triticum aestivum
Summary of the method: as §1

ragweed [8] = test: Test A preemergence; assay type: in vivo, Ambrosia artemisiifolia
Summary of the method: as §1

galium = test: Test A postemergence; assay type: in vivo, Galium aparine
Summary of the method: as §1

rice = test: Test B flooded paddy test; assay type: in vivo, Oryza sativa; settings: 250 g ai/ha, Flood, 13 days, 0 to 100 scale (0 no effect, 100 complete control)
Summary of the method: as §2

goosegrass [9] = test: Test A postemergence; assay type: in vivo, Eleusine indica
Summary of the method: as §1

pigweed, palmer [10] = test: Test A preemergence; assay type: in vivo, Amaranthus palmeri
Summary of the method: as §1

kochia [11] = test: Test A preemergence; assay type: in vivo, Bassia scoparia
Summary of the method: as §1

wheat [12] = test: Test A preemergence; assay type: in vivo, Triticum aestivum
Summary of the method: as §1

foxtail, giant [13] = test: Test A postemergence; assay type: in vivo, Setaria faberi
Summary of the method: as §1

blackgrass [14] = test: Test A preemergence; assay type: in vivo, Alopecurus myosuroides
Summary of the method: as §1

ryegrass, Italian [15] = test: Test A postemergence; assay type: in vivo, Lolium multiflorum
Summary of the method: as §1

foxtail, giant [16] = test: Test A preemergence; assay type: in vivo, Setaria faberi
Summary of the method: as §1

ryegrass, Italian [17] = test: Test A preemergence; assay type: in vivo, Lolium multiflorum
Summary of the method: as §1

blackgrass [18] = test: Test A postemergence; assay type: in vivo, Alopecurus myosuroides
Summary of the method: as §1

ragweed [19] = test: Test A postemergence; assay type: in vivo, Ambrosia artemisiifolia
Summary of the method: as §1

soybean [20] = test: Test A preemergence; assay type: in vivo, Glycine max
Summary of the method: as §1

pigweed, palmer [21] = test: Test A postemergence; assay type: in vivo, Amaranthus palmeri
Summary of the method: as §1

kochia [22] = test: Test A postemergence; assay type: in vivo, Bassia scoparia
Summary of the method: as §1

[23] = 125 g ai/ha, postemergence, 10 days, visual injury, 0 to 100 scale (0 no effect, 100 complete control)
[24] = 500 g ai/ha, Postemergence, 0 to 100 scale
[25] = 125 g ai/ha, visual injury after 10 days, 0 to 100 scale, 0 is no effect, 100 is complete control
[26] = 500 g ai/ha, 0 to 100 scale (0 no effect, 100 complete control), 10 days

Cc1cccc2c1O[C@@H](C)CN2C(=O)c1cccc(-n2ncnc2C(C)C)c1 [Compound 56]
10: Plant response rating, Soybean (soybean [2]; [24])
0: Plant response rating, Horseweed (horseweed; [23]) | Plant response rating, Horseweed (horseweed; [24]) | Plant response rating, Barnyardgrass (barnyardgrass) | Plant response rating, Oat, Wild (oat, wild [1]; [23]) | Plant response rating, Oat, Wild (oat, wild [1]; [24]) | Plant response rating, Sedge, Umbrella (sedge, umbrella) | Plant response rating, Ducksalad (ducksalad) | Plant response rating, Soybean (soybean [2]; [23]) | Plant response rating, Goosegrass (goosegrass [3]; [25]) | Plant response rating, Goosegrass (goosegrass [3]; [26]) | Plant response rating, Corn (corn [4]; [23]) | Plant response rating, Corn (corn [4]; [24]) | Plant response rating, Corn (corn [5]; [25]) | Plant response rating, Corn (corn [5]; [26]) | Plant response rating, Oat, Wild (oat, wild [6]; [25]) | Plant response rating, Oat, Wild (oat, wild [6]; [26]) | Plant response rating, Wheat (wheat [7]; [23]) | Plant response rating, Wheat (wheat [7]; [24]) | Plant response rating, Ragweed (ragweed [8]; [25]) | Plant response rating, Ragweed (ragweed [8]; [26]) | Plant response rating, Galium (galium; [23]) | Plant response rating, Galium (galium; [24]) | Plant response rating, Rice (rice) | Plant response rating, Goosegrass (goosegrass [9]; [23]) | Plant response rating, Goosegrass (goosegrass [9]; [24]) | Plant response rating, Pigweed, Palmer (pigweed, palmer [10]; [25]) | Plant response rating, Pigweed, Palmer (pigweed, palmer [10]; [26]) | Plant response rating, Kochia (kochia [11]; [25]) | Plant response rating, Kochia (kochia [11]; [26]) | Plant response rating, Wheat (wheat [12]; [25]) | Plant response rating, Wheat (wheat [12]; [26]) | Plant response rating, Foxtail, Giant (foxtail, giant [13]; [23]) | Plant response rating, Foxtail, Giant (foxtail, giant [13]; [24]) | Plant response rating, Blackgrass (blackgrass [14]; [25]) | Plant response rating, Blackgrass (blackgrass [14]; [26]) | Plant response rating, Ryegrass, Italian (ryegrass, Italian [15]; [23]) | Plant response rating, Ryegrass, Italian (ryegrass, Italian [15]; [24]) | Plant response rating, Foxtail, Giant (foxtail, giant [16]; [25]) | Plant response rating, Foxtail, Giant (foxtail, giant [16]; [26]) | Plant response rating, Ryegrass, Italian (ryegrass, Italian [17]; [25]) | Plant response rating, Ryegrass, Italian (ryegrass, Italian [17]; [26]) | Plant response rating, Blackgrass (blackgrass [18]; [23]) | Plant response rating, Blackgrass (blackgrass [18]; [24]) | Plant response rating, Ragweed (ragweed [19]; [23]) | Plant response rating, Ragweed (ragweed [19]; [24]) | Plant response rating, Soybean (soybean [20]; [25]) | Plant response rating, Soybean (soybean [20]; [26]) | Plant response rating, Pigweed, Palmer (pigweed, palmer [21]; [23]) | Plant response rating, Pigweed, Palmer (pigweed, palmer [21]; [24]) | Plant response rating, Kochia (kochia [22]; [23]) | Plant response rating, Kochia (kochia [22]; [24])

CC1CN(C(=O)c2cc(-n3cncn3)ccc2F)c2cccc(Cl)c2O1 (centres unmarked) [Compound 39]
100: Plant response rating, Soybean (soybean [2]; [23]) | Plant response rating, Soybean (soybean [2]; [24]) | Plant response rating, Goosegrass (goosegrass [3]; [26]) | Plant response rating, Galium (galium; [24]) | Plant response rating, Ryegrass, Italian (ryegrass, Italian [15]; [24]) | Plant response rating, Foxtail, Giant (foxtail, giant [16]; [26]) | Plant response rating, Ryegrass, Italian (ryegrass, Italian [17]; [26])
10: Plant response rating, Wheat (wheat [7]; [23]) | Plant response rating, Ragweed (ragweed [8]; [25]) | Plant response rating, Foxtail, Giant (foxtail, giant [13]; [23])
0: Plant response rating, Horseweed (horseweed; [23]) | Plant response rating, Barnyardgrass (barnyardgrass) | Plant response rating, Sedge, Umbrella (sedge, umbrella) | Plant response rating, Ducksalad (ducksalad) | Plant response rating, Corn (corn [4]; [23]) | Plant response rating, Corn (corn [5]; [25]) | Plant response rating, Oat, Wild (oat, wild [6]; [25]) | Plant response rating, Rice (rice) | Plant response rating, Kochia (kochia [11]; [25]) | Plant response rating, Wheat (wheat [12]; [25]) | Plant response rating, Blackgrass (blackgrass [14]; [25]) | Plant response rating, Ragweed (ragweed [19]; [23])
30: Plant response rating, Corn (corn [5]; [26]) | Plant response rating, Goosegrass (goosegrass [9]; [23]) | Plant response rating, Wheat (wheat [12]; [26]) | Plant response rating, Soybean (soybean [20]; [25]) | Plant response rating, Kochia (kochia [22]; [23])
50: Plant response rating, Wheat (wheat [7]; [24]) | Plant response rating, Pigweed, Palmer (pigweed, palmer [10]; [25]) | Plant response rating, Kochia (kochia [11]; [26]) | Plant response rating, Ryegrass, Italian (ryegrass, Italian [15]; [23])
40: Plant response rating, Oat, Wild (oat, wild [1]; [23]) | Plant response rating, Ryegrass, Italian (ryegrass, Italian [17]; [25]) | Plant response rating, Pigweed, Palmer (pigweed, palmer [21]; [24])
20: Plant response rating, Horseweed (horseweed; [24]) | Plant response rating, Ragweed (ragweed [8]; [26]) | Plant response rating, Pigweed, Palmer (pigweed, palmer [21]; [23])
90: Plant response rating, Oat, Wild (oat, wild [1]; [24]) | Plant response rating, Goosegrass (goosegrass [3]; [25]) | Plant response rating, Galium (galium; [23]) | Plant response rating, Pigweed, Palmer (pigweed, palmer [10]; [26]) | Plant response rating, Foxtail, Giant (foxtail, giant [13]; [24]) | Plant response rating, Foxtail, Giant (foxtail, giant [16]; [25])
70: Plant response rating, Corn (corn [4]; [24]) | Plant response rating, Oat, Wild (oat, wild [6]; [26]) | Plant response rating, Soybean (soybean [20]; [26])
60: Plant response rating, Goosegrass (goosegrass [9]; [24]) | Plant response rating, Blackgrass (blackgrass [14]; [26]) | Plant response rating, Blackgrass (blackgrass [18]; [23]) | Plant response rating, Blackgrass (blackgrass [18]; [24]) | Plant response rating, Ragweed (ragweed [19]; [24]) | Plant response rating, Kochia (kochia [22]; [24])

Reference: patent US20260262643A1, “HERBICIDAL BENZOXAZINES” (FMC CORPORATION, priority 2022, published 2026)
